Measured values as given in paper PMC6367362, “MD001, a Novel Peroxisome Proliferator-activated Receptor α/γ Agonist, Improves Glucose and Lipid Metabolism” (Scientific Reports, 2019).

Experiments:
HepG2 cells = assay: qRT-PCR gene expression in HepG2 cells; type: cell-based, human; conditions: 24 h
Method: Figure 2 MD001 induces the expression of target genes through PPARα and PPARγ activation. HEK293 cells were transiently co-transfected with human HA-PPARα (A) and HA-PPARγ (B) expression vectors along with the reporter plasmid (PPRE-pk-Luc) or control reporter plasmid (pk-Luc) with Renilla vector for 24 h. Cells were treated with MD001 (10 μM), rosiglitazone (rosi) (10 μM) or WY14643 (WY) (10 μM) for 24 h. Luciferase activity was normalised to Renilla luciferase activity as described in the Methods section. **, vs. vehicle. (C) HepG2 cells were treated with MD001 (10 μM) for 24 h, and total RNA was isolated and synthesised into cDNA. Relative expression was quantitated using qRT-PCR. **, vs. vehicle. (D,E) HepG2 cells were transfected with control siRNA, PPARα siRNA (D), or PPARγ siRNA (E) for 48 h and treated with vehicle, WY14643 (10 μM), rosiglitazone (10 μM) or MD001 (10 μM) for 24 h. Subsequently, cells were harvested for total RNA isolation. Relative expression of target genes was quantitated using qRT-PCR. ^#, vs. control siRNA; ^‡, vs. control siRNA/vehicle; ^§, vs. control siRNA/WY; * and **, vs. control siRNA/MD001. Data represent the mean ± SD of three independent experiments. *P < 0.05, **P < 0.01, ^#P < 0.01, ^‡P < 0.01, and ^§P < 0.01.
Figure 3 MD001 promotes glucose consumption by induction of GLUT expression. HepG2 (A), differentiated 3T3-L1 adipocytes (B), and differentiated C2C12 myotubes (C) were treated with vehicle, MD001 (10, 50 μM), or rosiglitazone (rosi, 10 μM) for 24 h; glucose consumption was examined as described in the Methods section. Cells were harvested for total RNA isolation. Relative expression levels of GLUT2 (D) and GLUT4 (E,F) were quantitated using qRT-PCR. *, **, and ^† vs. vehicle. Data represent the mean ± SD of three independent experiments. *P < 0.05, **P < 0.01, and ^†P < 0.01.
Figure 4 MD001 stimulates fatty acid oxidation in vitro. HepG2 (A), differentiated 3T3-L1 adipocyte (B), and differentiated C2C12 myotubes (C) were treated with vehicle or MD001 (10 μM) for 24 h and total RNA was isolated for cDNA synthesis. Relative gene expressions were analysed by qRT-PCR. HepG2 (D), differentiated 3T3-L1 adipocytes (E), and differentiated C2C12 myotubes (F) were treated with vehicle, MD001 (10 μM), or WY14643 (WY) (10 μM) for 24 h and the fatty acid oxidation rate was analysed as described in the Methods section. To confirm whether the fatty acid oxidation rate enhanced by MD001 is mediated by PPARα, HepG2 (G), differentiated 3T3-L1 (H), and differentiated C2C12 myotubes (I) were transfected with control or PPARα siRNA (20 nM) for 48 h, followed by treatment with vehicle, MD001 (10 μM), or WY14643 (WY) (10 μM) for 24 h. WY14643 was treated as positive control. *, **, vs. vehicle; ^† and ^‡, vs. vehicle/control siRNA; ^§, vs. WY/control siRNA; ^¶, vs. MD001/control siRNA. Data represent the mean ± SD of three independent experiments. *P < 0.05, **P < 0.01, ^†P < 0.01, ^‡P < 0.05, ^§P < 0.01, and ^¶P < 0.05.
Total RNA was isolated using an RNeasy kit (Qiagen, Germantown, MD, USA) according to the manufacturer’s instructions. Complementary DNA (cDNA) was synthesised by reverse transcription using 0.5 μg of total RNA, and quantitative RT-PCR was performed using Power SYBR Green PCR Master Mix (ABI Thermo Fisher Scientific, Foster City, CA, USA) on a StepOne 48-well real-time PCR system (ABI/Thermo Fisher Scientific). GAPDH was used as an endogenous control. Primer sequences are summarized in Supplementary Table S1.

db/db mice = assay: Oral once-daily administration to diabetic db/db mice
Method: (A) Changes in blood glucose levels was monitored in db/db mice administered once a day with vehicle, WY14643 (WY, 20 mg/kg), rosiglitazone (rosi, 20 mg/kg), or MD001 (n = 5–6 per group) as indicated. […] (D–M) The change in various blood metabolites was examined in db/db mice administered once a day with vehicle, WY14643 (WY), rosiglitazone (rosi), or MD001 (n = 5–6 per group). *, **, and ^#, vs. vehicle; ^†, vs. vehicle, MD001(5 mg/kg), and MD001(20 mg/kg). The data represent the mean ± S.D. *P < 0.05, **P < 0.01, ^#P < 0.001, and ^†P < 0.01.
Six-week-old C57BLKS/J-Lepr^db/Lepr^db or wild type C57BL/6J male mice were purchased from Orient Bio, Inc. (Seongnam, Korea) and acclimatised for one week. Mice were randomly grouped and orally administered with vehicle, WY14643 (20 mg/kg), rosiglitazone (20 mg/kg), or MD001 (5 mg/kg or 20 mg/kg) once a day for two months. […] Blood glucose levels were measured at the indicated time point using an OneTouch Ultra Blood Glucose Monitoring System (LifeScan, Inc., Milpitas, CA, USA).
Livers and blood samples were collected from mice in each group.
Tissues specimens including liver, perigonadal adipose tissue, skeletal muscle, spleen, kidney, and heart, were collected from mice in each group, fixed in 10% formalin, and embedded into paraffin. Tissue sections (5 μm) were stained with haematoxylin and eosin (H&E).

[1] = db/db mice, 60 days, rosiglitazone 20 mg/kg, MD001 5 and 20 mg/kg
[2] = db/db mice, once a day for 60 days, rosiglitazone 20 mg/kg
[3] = db/db mice, 20 mg/kg, 60 days, qRT-PCR
[4] = db/db mice, 20 mg/kg, qRT-PCR and immunoblot

For `Cc1c(O)cc(O)c2c(-c3ccccc3)c(C(=O)/C=C/c3ccccc3)c(=O)oc12` [MD001], the “expression of PPARα target genes ACOX, CPT, mCAD” value (HepG2 cells; HepG2, control siRNA, 10 μM) was “significantly increased”, the “expression of PPARγ target genes GK, CD36, FABP1” value (HepG2 cells; HepG2, control siRNA, 10 μM) was “significantly increased” and the “expression levels of ACOX, CPT, MLYCD, and FATP” value (HepG2 cells; HepG2, 10 μM) was “significantly increased”. For the same molecule, the “expression of PPARα, PPARγ, and RXR genes” value (HepG2 cells; HepG2, 10 μM) was “significantly increased”, the “expression of glucose transporter GLUT2” value (HepG2 cells; HepG2, 10, 50 μM) was “significantly increased” and the “blood glucose levels in intraperitoneal insulin tolerance test (IPITT)” value (db/db mice; db/db mice) was “lowered”. The body weight gain (db/db mice; db/db mice, 60 days, compared to vehicle) was “no induction of body weight gain”, the RBC count (db/db mice; [1]) was “did not decrease” and the “haematocrit (HCT) level” value (db/db mice; [1]) was “did not decrease”. The “haemoglobin (Hb) level” value (db/db mice; [1]) was “did not decrease”, the “number of large fat cells (>150 μm in diameter)” value (db/db mice; db/db mice, adipose tissue H&E) was “significantly reduced” and the “number of medium fat cells (100~150 μm in diameter)” value (db/db mice; db/db mice, adipose tissue H&E) was “significantly increased”. The “number of small fat cells (<100 μm in diameter)” value (db/db mice; db/db mice, adipose tissue H&E) was “significantly increased”, the “increase in fat mass as compared to the vehicle control” value (db/db mice; [2]) was “no increase” and the “increase in liver weight as compared to the vehicle control” value (db/db mice; [2]) was “no increase”. The HDL levels (db/db mice; db/db mice, oral once a day) was “increased”, the LDL levels (db/db mice; db/db mice, oral once a day) was “significantly decreased” and the “blood FFA” value (db/db mice; db/db mice, oral once a day) was “significantly decreased”. The “blood TG” value (db/db mice; db/db mice, oral once a day) was “significantly decreased”, the “blood alanine aminotransferase (ALT) levels” value (db/db mice; db/db mice, oral once a day) was “significantly reduced” and the “blood aspartate aminotransferase (AST) levels” value (db/db mice; db/db mice, oral once a day) was “significantly reduced”. For the same molecule, the blood insulin (db/db mice; db/db mice, oral once a day) was “significantly decreased”, the “serum adiponectin (Acrp30) levels” value (db/db mice; db/db mice, oral once a day) was “increased” and the total cholesterol levels (db/db mice; db/db mice, oral once a day) was “did not affect”. The blood glucose levels (db/db mice; db/db mice, oral once a day, MD001 5 or 20 mg/kg, WY14643 20 mg/kg, rosiglitazone 20 mg/kg) was “significantly decreased blood glucose levels in a dose-dependent manner”, the “hepatic FFA” value (db/db mice; db/db mice, 20 mg/kg) was “significantly reduced” and the “hepatic TG” value (db/db mice; db/db mice, 20 mg/kg) was “significantly reduced”. The “hepatic steatosis (H&E staining of liver)” value (db/db mice; db/db mice, 20 mg/kg) was “reduction in size and number of hepatic lipid droplets in a dose-dependent manner”, the “diameter of the glomerular capsule” value (db/db mice; db/db mice, 20 mg/kg once a day for 60 days) was “significantly reduced” and the “expression of PEPCK and G6Pase in the liver” value (db/db mice; db/db mice, 20 mg/kg once a day for 60 days, qRT-PCR) was “decreased”. For the same molecule, the “H&E staining of skeletal muscle” value (db/db mice; db/db mice, 20 mg/kg, 60 days, compared among vehicle and treated groups) was “no differences”, the “expression of inflammatory genes TNFα, MCP-1 and macrophage-marker genes CD11b, CD11c” value (db/db mice; [3]) was “decreased” and the “liver expression of hepatic lipogenesis genes ADD1, ACC, FAS” value (db/db mice; [3]) was “decreased”. The “skeletal muscle expression of ACOX, CPT, MLYCD, GLUT4, and LPL” value (db/db mice; [3]) was “significantly increased”, the “adipose tissue expression of ACOX, CPT, GLUT4, and CD36” value (db/db mice; [4]) was “significantly increased” and the “liver expression of target genes of PPARα (ACOX, CPT, MLYCD) and PPARγ (GLUT2, GK, CD36)” value (db/db mice; [4]) was “significantly increased”. For the same molecule, the “blood glucose levels in oral glucose tolerance test (OGTT)” value (db/db mice; db/db mice, glucose 1 g/kg, eight weeks after drug administration) was “significantly decreased” and the food ingestion (db/db mice; wild type C57BL/6J and db/db mice, 3-day food intake) was “without changes in food ingestion”.
